Data reported in ChEMBL document CHEMBL3045595, “Synthesis and characterization of new types of 2-(6-methoxy-2-naphthyl)propionamide derivatives as potential antibacterial and antifungal agents” (2013).
≈ marks a conversion by molar mass, not a printed value. Calls of active or inactive are those of the source. The calls are words filed in the database; no cut-off is given here.

How the values were obtained:
Assay type in all cases: functional
Pseudomonas aeruginosa [1] = assay: Antibacterial activity against Pseudomonas aeruginosa RCMB 010043 at 1 mg/ml after 24 hrs by agar well diffusion method; settings: for zone of inhibition at 1000 µg/mL: RCMB 010043, 24 h, read-out: DIZ
Bacillus subtilis [2] = assay: Antibacterial activity against Bacillus subtilis RCMB 010063 at 1 mg/ml after 24 hrs by agar well diffusion method; settings: RCMB 010063, 24 h, read-out: DIZ
Staphylococcus aureus [3] = assay: Antibacterial activity against Staphylococcus aureus RCMB 010027 at 1 mg/ml after 24 hrs by agar well diffusion method; settings: RCMB 010027, 24 h, read-out: DIZ
Candida albicans [4] = assay: Antifungal activity against Candida albicans RCMB 05035 at 1 mg/ml after 72 hrs by agar well diffusion method; settings: for zone of inhibition at 1000 µg/mL: RCMB 05035, 72 h, read-out: DIZ
Aspergillus ochraceus [5] = assay: Antifungal activity against Aspergillus ochraceus RCMB 02593 at 1 mg/ml after 72 hrs by agar well diffusion method; settings: RCMB 02593, 72 h, read-out: DIZ
Escherichia coli [6] = assay: Antibacterial activity against Escherichia coli RCMB 000103 at 1 mg/ml after 24 hrs by agar well diffusion method; settings: for zone of inhibition at 1000 µg/mL: RCMB 000103, 24 h, read-out: DIZ
Pseudomonas aeruginosa [7] = assay: Antibacterial activity against Pseudomonas aeruginosa RCMB 010043 after 24 hrs by twofold serial dilution method; settings: RCMB 010043, 24 h
Escherichia coli [8] = assay: Antibacterial activity against Escherichia coli RCMB 000103 after 24 hrs by twofold serial dilution method; settings: RCMB 000103, 24 h
Bacillus subtilis [9] = assay: Antibacterial activity against Bacillus subtilis RCMB 010063 after 24 hrs by twofold serial dilution method; settings: RCMB 010063, 24 h
Staphylococcus aureus [10] = assay: Antibacterial activity against Staphylococcus aureus RCMB 010027 after 24 hrs by twofold serial dilution method; settings: RCMB 010027, 24 h
Candida albicans [11] = assay: Antifungal activity against Candida albicans RCMB 05035
Aspergillus ochraceus [12] = assay: Antifungal activity against Aspergillus ochraceus RCMB 02593
Escherichia coli [13] = assay: Antibacterial activity against Escherichia coli RCMB 000103 at 25 ug/ml after 24 hrs by agar well diffusion method; settings: RCMB 000103, 24 h, read-out: DIZ
Pseudomonas aeruginosa [14] = assay: Antibacterial activity against Pseudomonas aeruginosa RCMB 010043 at 25 ug/ml after 24 hrs by agar well diffusion method; settings: RCMB 010043, 24 h, read-out: DIZ
Bacillus subtilis [15] = assay: Antibacterial activity against Bacillus subtilis RCMB 010063 at 25 ug/ml after 24 hrs by agar well diffusion method; settings: RCMB 010063, 24 h, read-out: DIZ
Staphylococcus aureus [16] = assay: Antibacterial activity against Staphylococcus aureus RCMB 010027 at 25 ug/ml after 24 hrs by agar well diffusion method; settings: RCMB 010027, 24 h, read-out: DIZ
Candida albicans [17] = assay: Antifungal activity against Candida albicans RCMB 05035 at 25 ug/ml after 72 hrs by agar well diffusion method; settings: RCMB 05035, 72 h, read-out: DIZ
Aspergillus ochraceus [18] = assay: Antifungal activity against Aspergillus ochraceus RCMB 02593 at 25 ug/ml after 72 hrs by agar well diffusion method; settings: RCMB 02593, 72 h, read-out: DIZ

Compound	diameter of the inhibition zone (DIZ) (Pseudomonas aeruginosa [1])	zone of inhibition at 1000 µg/mL (Bacillus subtilis [2]) [mm]	zone of inhibition at 1000 µg/mL (Staphylococcus aureus [3]) [mm]	zone of inhibition at 1000 µg/mL (Aspergillus ochraceus [5]) [mm]	MIC (Pseudomonas aeruginosa [7]) [mg/L]	MIC (Escherichia coli [8]) [mg/L]	MIC (Bacillus subtilis [9]) [mg/L]	MIC (Staphylococcus aureus [10]) [mg/L]	zone of inhibition at 1000 µg/mL (Pseudomonas aeruginosa [1]) [mm]	MIC (Candida albicans [11])	MIC (Aspergillus ochraceus [12]) [mg/L]	zone of inhibition at 1000 µg/mL (Candida albicans [4]) [mm]	zone of inhibition at 1000 µg/mL (Escherichia coli [6]) [mm]	further results
COc1ccc2cc(C(C)C(=O)NCCNC(=O)C(C)c3ccc4cc(OC)ccc4c3)ccc2c1 (stereo not drawn)	inactive	14.5	13.1	12.6										diameter of the inhibition zone (DIZ) (Candida albicans [4]): inactive; diameter of the inhibition zone (DIZ) (Escherichia coli [6]): inactive
O=C(O)c1cn(C2CC2)c2cc(N3CCNCC3)c(F)cc2c1=O [CIPROFLOXACIN]					31.2 (≈ 94.3 µM)	1.95 (≈ 5.89 µM)	0.007 (≈ 0.0211 µM)	0.06 (≈ 0.181 µM)						
COc1ccc2cc(C(C)C(=O)Nc3ccc(C(=O)O)cc3)ccc2c1 (stereo not drawn)		23.7	21.6	19.4	15.6 (≈ 44.7 µM)	1.95 (≈ 5.58 µM)	3.9 (≈ 11.2 µM)	0.24 (≈ 0.687 µM)	15.9	62.5 mg/L (≈ 179 µM)	7.81 (≈ 22.4 µM)	15.6	20.3	
COc1ccc2cc(C(C)C(=O)NCc3n[nH]c(=S)n3N)ccc2c1 (stereo not drawn)		23.7	21.6	19.4	62.5 (≈ 175 µM)	7.81 (≈ 21.8 µM)	0.97 (≈ 2.71 µM)	3.9 (≈ 10.9 µM)	15.9	62.5 mg/L (≈ 175 µM)	15.6 (≈ 43.7 µM)	20.6	20.3	
CC1(C)S[C@@H]2[C@H](NC(=O)[C@H](N)c3ccccc3)C(=O)N2[C@H]1C(=O)O [AMPICILLIN]														zone of inhibition at 25 µg/mL (Escherichia coli [13]): 21.4 mm; zone of inhibition at 25 µg/mL (Pseudomonas aeruginosa [14]): 17.3 mm; zone of inhibition at 25 µg/mL (Bacillus subtilis [15]): 34.6 mm; zone of inhibition at 25 µg/mL (Staphylococcus aureus [16]): 28.9 mm
COc1ccc2cc(C(C)C3=N/C(=C/c4ccc(F)cc4)C(=O)O3)ccc2c1 (stereo not drawn)		20.6	20.3	18.3	62.5 (≈ 166 µM)	15.6 (≈ 41.6 µM)	3.9 (≈ 10.4 µM)	7.81 (≈ 20.8 µM)	15.3	125 mg/L (≈ 333 µM)	15.6 (≈ 41.6 µM)	19.9	19.3	
COc1ccc2cc(C(C)C(=O)Nc3ccc4c(c3)Sc3ccccc3N4)ccc2c1 (stereo not drawn)		24.6	21.4	17.6	7.81 (≈ 18.3 µM)	7.81 (≈ 18.3 µM)	0.97 (≈ 2.27 µM)	3.9 (≈ 9.14 µM)	13.6	31.2 mg/L (≈ 73.3 µM)	15.6 (≈ 36.6 µM)	16.9	20.2	
COc1ccc2cc(C(C)C(=O)Nc3ccc(S(=O)(=O)Nc4ncccn4)cc3)ccc2c1 (stereo not drawn)		28.7	25.3	11.7	3.9 (≈ 8.43 µM)	3.9 (≈ 8.43 µM)	7.81 (≈ 16.9 µM)	0.24 (≈ 0.519 µM)	16.8	inactive	3.9 (≈ 8.43 µM)		21.6	diameter of the inhibition zone (DIZ) (Candida albicans [4]): inactive
OC(Cn1cncn1)(Cn1cncn1)c1ccc(F)cc1F [FLUCONAZOLE]										0.24 mg/L (≈ 0.784 µM)	1.95 (≈ 6.37 µM)			zone of inhibition at 25 µg/mL (Candida albicans [17]): 26.4 mm; zone of inhibition at 25 µg/mL (Aspergillus ochraceus [18]): 21.9 mm
COc1ccc2cc(C(C)C(=O)NCc3n[nH]c(=S)[nH]3)ccc2c1 (stereo not drawn)		23.9	21.9	20.2	31.2 (≈ 91.3 µM)	7.81 (≈ 22.8 µM)	0.97 (≈ 2.83 µM)	3.9 (≈ 11.4 µM)	16.8	31.2 mg/L (≈ 91.3 µM)	7.81 (≈ 22.8 µM)	18.8	20.9	
COc1ccc2cc(C(C)C(=O)Nc3ccc(Nc4ccccc4)cc3)ccc2c1 (stereo not drawn)	inactive	15.4	13.9	17.6										diameter of the inhibition zone (DIZ) (Candida albicans [4]): inactive; diameter of the inhibition zone (DIZ) (Escherichia coli [6]): inactive
COc1ccc2cc(C(C)C(=O)NNC(=O)C(C)c3ccc4cc(OC)ccc4c3)ccc2c1 (stereo not drawn)	inactive	19.4	17.9	16								13.5	17.1	
COc1ccc2cc(C(C)C(=O)Nc3ccc(S(=O)(=O)NC(C)=O)cc3)ccc2c1 (stereo not drawn)		23.4	23.3	18.6	125 (≈ 293 µM)	3.9 (≈ 9.14 µM)	0.97 (≈ 2.27 µM)	0.97 (≈ 2.27 µM)	14.5	31.2 mg/L (≈ 73.3 µM)	15.6 (≈ 36.6 µM)	17.8	21.3	
COc1ccc2cc(C(C)C(=O)Nc3ccc(C)cc3)ccc2c1 (stereo not drawn)	inactive	17.2	16.1	14.7								12.8	15.6	
COc1ccc2cc(C(C)C(=O)Nc3ccc(S(=O)(=O)Nc4cc(C)on4)cc3)ccc2c1 (stereo not drawn)		21.7	20.6	17.3	1.95 (≈ 4.19 µM)	3.9 (≈ 8.38 µM)	62.5 (≈ 134 µM)	31.2 (≈ 67.1 µM)	13	250 mg/L (≈ 537 µM)	7.81 (≈ 16.8 µM)	16.5	19.9	
COc1ccc2cc(C(C)C(=O)Nc3ccc(N(C(C)=O)c4ccccc4)cc3)ccc2c1 (stereo not drawn)	inactive	17.1	16.2	12.4								9.3	14.6	
COc1ccc2cc(C(C)C(=O)NC(C)C(=O)O)ccc2c1 (stereo not drawn)	inactive	15.8	15.1	12.7								10.6	14.3	
COc1ccc2cc(C(C)C(=O)N/C(=C/c3ccc(Cl)cc3)C(=O)Nc3ccc(C)cc3)ccc2c1 (stereo not drawn)	inactive	19.6	19.9	14.8								13.6	14.3	
COc1ccc2cc(C(C)C3=N/C(=C/c4ccc(Cl)cc4)C(=O)O3)ccc2c1 (stereo not drawn)	inactive	15	13.9	14.5										diameter of the inhibition zone (DIZ) (Candida albicans [4]): inactive; diameter of the inhibition zone (DIZ) (Escherichia coli [6]): inactive
COc1ccc2cc(C(C)C(=O)Nc3ccc(CC(=O)O)cc3)ccc2c1 (stereo not drawn)	inactive	18.4	17.3	13.9								12.2	16.6	
COc1ccc2cc(C(C)C(=O)NCC(=O)O)ccc2c1 (stereo not drawn)	inactive	16.4	14.2	20.9								20.6	13.4	
